Some test systems named below: HL-60(TB) leukemia; HOP-62 NSCLC; IGROV1 ovarian; KM12 colon; MCF7 breast; MDA-MB-231 breast; NCI-H460 lung; OVCAR-4 ovarian; SNB-75 CNS; UACC-257 melanoma.
Common to all, as to test: NCI anticancer screen, dose series, 48 h

The structures appear in SMILES notation. Where “and” joins values, the source holds several entries; their conditions need not be identical. Equal entries are not always repeated.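 A five-concentration, 48-hour dose response in 96-well plates underlies each endpoint, interpolated linearly between surrounding concentrations. GI50 is the concentration that inhibits growth by half. TGI denotes the concentration required for complete inhibition of growth.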

As for `CC1=C/C(O)CC(=O)Cc2nc(co2)C(=O)N2CCC=C2C(=O)OC(C(C)C)C(C)/C=C\C(=O)NC/C=C\1` (stereo not given), the GI50 in the assay with HL-60(TB) leukemia is 14.5 µM; in the assay with HOP-62 NSCLC, 19.1 µM; in the assay with IGROV1 ovarian, 18.6 µM; in the assay with KM12 colon, 15.1 µM; in the assay on MCF7 breast, 5.89 µM; in the assay with MDA-MB-231 breast it was 27.1 µM. Also, the GI50 is 17.8 µM with NCI-H460 lung, 16.1 µM in the assay with OVCAR-4 ovarian, 21.4 µM with SNB-75 CNS and 12.6 µM in the assay on UACC-257 melanoma. The TGI with HL-60(TB) leukemia is above 100 µM; with HOP-62 NSCLC it was above 100 µM; with IGROV1 ovarian it was 48.2 µM and 36.6 µM; with KM12 colon it was 30.3 µM and 25.3 µM; in the assay with MCF7 breast, 25.1 µM and 41.2 µM; in the assay on MDA-MB-231 breast, > 71.4 µM and 61.4 µM. In addition, the TGI was 58 µM and > 100 µM in the assay on NCI-H460 lung; above 100 µM in the assay with OVCAR-4 ovarian; above 100 µM with SNB-75 CNS; 35.5 µM and > 100 µM in the assay with UACC-257 melanoma.

As for `O=C(Nc1nc(-c2ccccc2)cs1)c1cc(O)c(O)c(O)c1`, the GI50 was 3.05 µM in the assay with HL-60(TB) leukemia; 5.73 µM with HOP-62 NSCLC; 3.12 µM in the assay with IGROV1 ovarian; 8.02 µM with KM12 colon; 4.73 µM with MCF7 breast; 1.58 µM in the assay with MDA-MB-231 breast. The GI50 in the assay with NCI-H460 lung is 3.43 µM; with OVCAR-4 ovarian, 2.22 µM; with SNB-75 CNS, 1.92 µM; with UACC-257 melanoma, 7.84 µM. Moreover, the TGI was 10.1 µM with HL-60(TB) leukemia; 30.6 µM in the assay with HOP-62 NSCLC; 22.8 µM with IGROV1 ovarian; 26.9 µM in the assay with KM12 colon; above 100 µM in the assay with MCF7 breast; 24.4 µM in the assay with MDA-MB-231 breast. For the same compound, the TGI was 17 µM in the assay on NCI-H460 lung, 57.3 µM in the assay with OVCAR-4 ovarian, above 100 µM with SNB-75 CNS and 52.1 µM with UACC-257 melanoma.

Regarding `NC(=S)N/N=C/c1ccc(OC(=O)COc2ccccc2)cn1`, the GI50 in the assay with HL-60(TB) leukemia was 1.18 µM; with HOP-62 NSCLC, 11.1 µM; in the assay with IGROV1 ovarian, 9.39 µM; with KM12 colon, 3.16 µM; in the assay on MCF7 breast, 2.76 µM; in the assay with MDA-MB-231 breast, 8.27 µM. Also, the GI50 in the assay on NCI-H460 lung was 5.04 µM; in the assay on OVCAR-4 ovarian, 3.39 µM; with SNB-75 CNS it was 10.4 µM; in the assay on UACC-257 melanoma, 14.7 µM. Further, the TGI in the assay with HL-60(TB) leukemia was above 100 µM; in the assay with HOP-62 NSCLC it was 80.8 µM; with IGROV1 ovarian, above 100 µM; in the assay with KM12 colon, above 100 µM; in the assay with MCF7 breast, above 100 µM; in the assay on MDA-MB-231 breast it was above 100 µM. The TGI in the assay on NCI-H460 lung is 63.4 µM; with OVCAR-4 ovarian, above 100 µM; with SNB-75 CNS, above 100 µM; with UACC-257 melanoma it was 88.9 µM.

Take `C[C@@H]1CC[C@@H]2[C@@H]1[C@H](OC(=O)c1ccc3ccccc3c1)[C@]1(C3CCCCC3)C[C@@H](OC(=O)CO)[C@@]2(C)O1`: the GI50 with HL-60(TB) leukemia was 9.23 µM; with HOP-62 NSCLC, 12.8 µM; in the assay with IGROV1 ovarian it was 15.6 µM; with KM12 colon it was 11.1 µM; in the assay with MCF7 breast, 3.44 µM; in the assay on MDA-MB-231 breast, 13.6 µM. Besides, the GI50 with NCI-H460 lung is 9.27 µM; with OVCAR-4 ovarian, 10.8 µM; in the assay with SNB-75 CNS, 0.546 µM; in the assay on UACC-257 melanoma, 12.9 µM. Moreover, the TGI in the assay with HL-60(TB) leukemia is 30.6 µM; in the assay with HOP-62 NSCLC, 25.6 µM; in the assay with IGROV1 ovarian, 32.8 µM; in the assay on KM12 colon, 26.5 µM; in the assay on MCF7 breast it was 16.5 µM; in the assay on MDA-MB-231 breast, 29.3 µM. Further, the TGI in the assay on NCI-H460 lung turned out to be 23.7 µM; with OVCAR-4 ovarian it was 24.8 µM; in the assay with SNB-75 CNS, 18.8 µM; in the assay on UACC-257 melanoma, 26.3 µM.

Consider `c1ccc2c(-c3cnn4cc(-c5ccc(N6CCNCC6)cc5)cnc34)ccnc2c1`, for which the GI50 was 0.461 µM with HL-60(TB) leukemia; 0.634 µM in the assay with HOP-62 NSCLC; 0.801 µM in the assay with IGROV1 ovarian; 1.15 µM in the assay on KM12 colon; 0.429 µM in the assay on MCF7 breast; 1.48 µM with MDA-MB-231 breast. In addition, the GI50 in the assay on NCI-H460 lung is 0.216 µM; with OVCAR-4 ovarian it was 1.5 µM; with SNB-75 CNS it was 0.441 µM; in the assay with UACC-257 melanoma, 1.75 µM. The TGI in the assay with HL-60(TB) leukemia was found to be 0.969 µM; with HOP-62 NSCLC it was 1.24 µM; in the assay on IGROV1 ovarian, 2.23 µM; with KM12 colon it was 2.39 µM; in the assay with MCF7 breast it was 1.7 µM; in the assay with MDA-MB-231 breast, 3.03 µM. Also, the TGI was 0.525 µM with NCI-H460 lung, 3.43 µM in the assay with OVCAR-4 ovarian, 2.12 µM in the assay with SNB-75 CNS and 3.29 µM in the assay with UACC-257 melanoma.

As to `CNC(=O)/C(=C/c1ccc(OC)cc1)c1cc(OC)c(OC)c(OC)c1`, the TGI in the assay with HL-60(TB) leukemia is 8.01 µM; in the assay with HOP-62 NSCLC, above 100 µM; in the assay on IGROV1 ovarian it was above 100 µM; in the assay on KM12 colon it was above 83.9 µM; in the assay with MCF7 breast, above 51.4 µM; in the assay on MDA-MB-231 breast, above 77.9 µM. The TGI in the assay on NCI-H460 lung is 47.5 µM; with OVCAR-4 ovarian, 99.7 µM; in the assay on SNB-75 CNS, 4.4 µM; with UACC-257 melanoma it was above 90 µM.

In the case of `Cn1ccc2c3c(=O)cc[nH]c3ccc21`, the GI50 with HL-60(TB) leukemia, in the assay on HOP-62 NSCLC, in the assay with IGROV1 ovarian, in the assay with KM12 colon, in the assay with MCF7 breast and with MDA-MB-231 breast was above 100 µM in each case. In addition, the GI50 in the assay with NCI-H460 lung, in the assay with OVCAR-4 ovarian, with SNB-75 CNS and in the assay on UACC-257 melanoma was above 100 µM each time. Besides, the TGI in the assay with HL-60(TB) leukemia, in the assay on HOP-62 NSCLC, in the assay on IGROV1 ovarian, in the assay with KM12 colon, with MCF7 breast and with MDA-MB-231 breast was above 100 µM throughout. Also, the TGI with NCI-H460 lung, in the assay with OVCAR-4 ovarian, in the assay on SNB-75 CNS and in the assay with UACC-257 melanoma was above 100 µM throughout.

For the compound `CC(C)C[C@H]1C(=O)N2CCC[C@H]2[C@]2(O)O[C@](NC(=O)[C@@H]3C=C4c5cccc6[nH]c(Br)c(c56)C[C@H]4N(C)C3)(C(C)C)C(=O)N12`, the TGI was 28.1 µM in the assay with HL-60(TB) leukemia; above 100 µM in the assay with HOP-62 NSCLC; above 100 µM with IGROV1 ovarian; above 100 µM in the assay on KM12 colon; above 100 µM in the assay on MCF7 breast; above 100 µM with MDA-MB-231 breast. The TGI in the assay on NCI-H460 lung, in the assay with OVCAR-4 ovarian, in the assay on SNB-75 CNS and with UACC-257 melanoma was above 100 µM each time.

The values above are taken from PubChem BioAssay (NCI).
